For one series, the system named is MU1R mRNA. Put plainly: Quantitative RT-PCR of MU1R mRNA relative to GAPDH. Format: in vivo. The note with it: treated intracranially, 5 μg. As to the method: (§1) Messenger RNA (mRNA) levels for NTR1, MU1R, and GAPDH were measured in control and PNA-treated animals. Briefly, total RNA was isolated from approximately 20 mg of tissue using the S.N.A.P. total RNA Isolation Kit (Invitrogen, Carlsbad, Calif.). Quantitative RT-PCR was performed on treated and control animals using GAPDH as an internal standard and PCR fragments of the human NTR and of a GAPDH deletion mutant as exogenous standards. First strand cDNA was synthesized from approximately 500 ng of total RNA using the cDNA Cycle Kit (Invitrogen, Carlsbad, Calif.). PCR was performed on a GeneAmp PCR System 9600 (Perkin Elmer, Norwalk, Conn.) using end-labeled primer and TAq DNA Polymerase (Gibco-BRL, Gaithersburg, Md.). Products were separated on a 5% acrylamide gel containing 7 M urea, and detected using a Storm860 Phosphoimager (Molecular Dynamics, Sunnyvale, Calif.). Data were analyzed using ImageQuant Software (Molecular Dynamics, Sunnyvale Calif.). To control for any diurnal mRNA level fluctuations that may occur, the PNA injection time was controlled such that the tissue harvest time was identical in each animal group.

A short description of series [1]: Gel shift assay measuring PNA oligomer in tissue. The class given is in vivo. How it is done: To confirm the presence and measure the amount of PNA in brain after extracranial administration, a sensitive gel shift assay was developed. This assay involves using a radioactively-labeled oligonucleotide having sequence specificity for a PNA oligomer as a probe to detect that PNA oligomer. Briefly, a sample is prepared and incubated with a probe. If the sample contains a PNA oligomer having sequence specificity for the probe, then the probe can bind that PNA oligomer. This bound form of the probe then can be detected and quantified using gel electrophoresis since a probe bound to a PNA oligomer migrates differently than an unbound probe on a gel.
Brain extracts were prepared from either untreated animals or animals treated intraperitoneally with 10 mg/kg of the AS-NTR1-PNA oligomer. For the treated animals, brain tissue was collected 8 hours post treatment. To prepare brain extracts, flash frozen brain tissue (minus the PAG and hypothalamus) were homogenized in 1 mM Tris (pH 4.0), 0.1 mM EDTA at a concentration of 1.5 ml/g wet weight of tissue. This acidic condition can protonate cytosine bases as well as the N-terminal amino group of the PNA oligomer, which presumably increases the solubility of the PNA oligomer and allows the PNA oligomer to be found in an aqueous phase during the later extraction step. Samples were boiled for five minutes. This boiling step can free the bound PNA oligomer from its target sequence, and inactivate nucleases that may interfere with the integrity of the DNA oligonucleotide probe. Then, the samples were spun two to three times at 35,600×g for 10 minutes each to pellet insoluble material and the supernatants collected. Supernatants were extracted with 10 volumes of CHCl3:MeOH (2:1 v/v) to remove glycolipids that may interfere with gel electrophoresis, and spun briefly at 1,000×g to separate phases. For the standard curves using known amounts of a PNA oligomer, the PNA oligomer was added to the supernatant before the CHCl3:MeOH extraction. The supernatants were collected in a fresh tube, lyophilized, and resuspended in 30 to 40 μl of water.
Once prepared, approximately 400 pg of probe was added to each 30 to 40 μl sample. To prepare the probe, a DNA oligonucleotide (Gibco BRL, Gaithersburg, Md.) complementary to the AS-NTR1-PNA oligomer was end-labeled using T4 Polynucleotide Kinase (Gibco BRL) and [Gamma-^32P]ATP or [Gamma-^33P]ATP (New England Nuclear, Boston, Mass.) according to manufacturer's instructions. […]
After adding the probe, the samples were incubated at room temperature for 20 minutes. […] Signal was detected using a Storm860 Phosphoimager (Molecular Dynamics, Sunnyvale, Calif.) and data were analyzed using ImageQuant Software (Molecular Dynamics, Sunnyvale, Calif.). […]
(Mobility shift assays separate free from complexed probe on a gel.)

For the next series, the system named is morphine binding sites. Put plainly: [3H]morphine binding in rest of brain and small intestine after i.p. AS-NTR1-PNA (Example 8). The note with it: for Binding (% change vs control) Morphine: 24 hours after i.p. injection.
Series [2] has as its system [125I]neurotensin binding sites (NT receptors). The series is described as follows: [125I]neurotensin binding assay, small intestine (jejunum and ileum) membranal preparations of treated rats. The class given is in vivo, rat. As to the method:
Binding assays were performed using procedures similar to those described elsewhere (Kitabgi P. et al., Peptides 5:917-923 (1984) and Ahmad S. et al., Biochim et Biophys Acta 896:224-238 (1987)).
Table II contains the results from an [^125I]neurotensin binding assay using small intestine (jejunum and ileum) membranal preparations from NTR1-PNA treated and untreated rats. The small intestine tissue was harvested from the rats 1 day after receiving a single i.p. injection of NTR1-PNA oligomers as described above. Untreated rats were used to derive control values for the percent control dpm and percent control receptors (fmol/mg). Thus, the values for untreated rats were set to 100 percent.
In addition to determining the influence of […] NTR1-PNA oligomers on anti-nociception and hypothermia, the effects of these oligomers on NT binding sites were determined using the NT receptor binding assay described in Example 1.

For a further series, the system named is NTR1 binding sites. The series is described as follows: [125I]NT binding in PAG, rest of brain and small intestine after i.p. AS-NTR1-PNA (Example 8). The conditions noted are these: for Binding (% change vs control) NT: 24 hours after i.p. injection. The class given is in vivo, rat.
A further series relates to NTR1 mRNA. Put plainly: Quantitative RT-PCR of NTR1 mRNA relative to GAPDH. The note with it: treated intracranially, 5 μg. The class given is in vivo. How it is done:
as §1

[3] abbreviates: small intestine, 1 day after single i.p. injection (3 mg/kg).

As to “NTR1-PNA: 12-mer antisense PNA oligomer to rat NTR1 coding region, 5′-CATTGCTCAAAC-3′ (SEQ ID NO: 1) (all peptide nucleic acid (PNA))”, in the series with MU1R mRNA, the “change in MU1R/GAPDH ratio of mRNA” value was “no significant change”. For the same substance, in series [1] (8 hours after i.p. 10 mg/kg), the “integrity of PNA oligomer recovered from brain (gel mobility shift)” value is listed as “unaltered”. Also, the “presence of PNA oligomer in brain extracts” value in series [1] (8 hours after i.p. 10 mg/kg, perfused and non-perfused animals) is listed as “detected in brain extracts prepared from treated animals”. Also, in series [1] (8 hours after intraperitoneal 10 mg/kg, corrected for recovery), the “concentration of PNA oligomer within brain” value was 2.4±0.3 ng/whole brain. Besides, the “presence of PNA oligomer in brain, heart, kidney, liver, spleen and blood” value in series [1] (tissues 2 hours after i.p. 10 mg/kg (perfused), blood 5 minutes after i.v. 10 mg/kg) is “detected in each tissue”. Also, the “Binding (% change vs control) Morphine” value with morphine binding sites (Rest of Brain) is 2 ± 2 % change vs control; in the series with morphine binding sites (Small Intestine), −7 ± 8 % change vs control. Further, the “number of morphine binding sites compared to controls” value in the series with morphine binding sites (rest of brain or small intestine) was “no significant difference”. In addition, in series [2] (Small intestine, 24 hours after single oral 10 mg/kg), the “number of receptors (mean ± SEM in fmol/mg wet wt.)” value is “Below Detection”. Moreover, the “% Control dpm's” value in series [2] (setting [3]) came to 41 % Control. Moreover, the “% Control receptors” value in series [2] (setting [3]) came out at 2 % Control. Moreover, the NT binding sites result in series [2] (small intestine, 24 hours after oral 10 mg/kg) is recorded as “completely abolished”. The “fewer [125I]neurotensin binding sites than untreated rats” value in series [2] (small intestine, one day after i.p. treatment) turned out to be 98%. Also, the “reduction in the number of NTR1 binding sites vs untreated animals” value was determined as 35% in the series with NTR1 binding sites (PAG), 40% in the series on NTR1 binding sites (rest of brain) and 65% with NTR1 binding sites (small intestine). Further, the “Binding (% change vs control) NT” value with NTR1 binding sites (PAG) was −35 ± 9 % change vs control; with NTR1 binding sites (Rest of Brain), −40 ± 1 % change vs control; in the series with NTR1 binding sites (Small Intestine), −65 ± 5 % change vs control. Also, the “change in NTR1/GAPDH ratio of mRNA over time” value with NTR1 mRNA was “no significant change”.

These data come from patent US6989270B1, “Using polyamide nucleic acid oligomers to engender a biological response” (Mayo Foundation for Medical Education and Research, priority 1997, dated 2006).
